Data on 15 molecules can be found in patent US4721711A, “Pyridazine derivatives active on the central nervous system, and medicaments in which they are present” (Sanofi, priority 1983, dated 1988).

The ED50 is the dose that gives a 50% effect, or the effect in half of the subjects. A higher ED50 goes with weaker potency.

Test [1] concerns the target GABA post-synaptic receptor. Briefly: displacement of tritiated GABA from its post-synaptic receptor (synaptic membranes, Enna and Snyder). The note with it: in vitro, tritiated GABA 3.6 nM, read-out: Median effective concentration (EC50) for displacement of tritiated GABA. The class given is binding. Here is the method: The products according to the invention were studied for their activity on the central nervous system. Activity on the displacement of .UPSILON.-aminobutyric acid from its post-synaptic receptor. Method: The neurochemical activity of the derivatives of the present invention on the GABA-ergic system was evaluated by measuring the displacement of .UPSILON.-aminobutyric acid (GABA) from its post-synaptic receptor. The study was carried out by the method of ENNA and […] (Brain Res. 100, 81-97, 1975). The displacement experiment was carried out in vitro in the presence of a suspension of synaptic membranes and tritiated GABA at a final concentration of 3.6 nM.

Test [2] has as its system rotational behaviour of mice. Put plainly: rotational behaviour of mice after unilateral lesion of the nigro-striated passage by 6-(OH)-dopamine. The format is in vivo, CD1 Charles River female mice. Particulars: intraperitoneal, 1 hour after administration, over 2 minutes, **p 0.01. Here is the method:
3. Effect on the rotational behaviour of mice after unilateral lesion of the nigro-striated passage by 6-(OH)-dopamine
The influence of the derivatives of the present invention on the central dopaminergic system was evaluated on the rotational behaviour of mice after unilateral lesion of the nigro-striated passage by 6-(OH)-dopamine. (P. PROTAIS and J. COSTENTIN, J. Pharmacol. 7(2), 251-255, 1976).
CD1 Charles River female mice, weighing 20 to 24 g, have previously undergone unilateral lesion of the striatum by the stereotaxic injection of 6-(OH)-dopamine at a dose of 8 μg per animal. One week after this operation, the product to be studied was administered intraperitoneally to grouos of 7 mice. The number of rotations was evaluated over 2 minutes, 1 hour after the administration of the product. The rotations on the same side as the lesion were counted as positive and those on the opposite side were counted as negative. The algebraic sum of the rotations for a group treated animals was compared with that for the group of control animals which had only received the vehicle (physiological serum).

Test [3] relates to reserpine-induced ptosis in mice. Put plainly: antagonism of reserpine-induced ptosis in mice. The class given is in vivo. The note with it: Mus musculus, ip; intraperitoneal, with reserpine 2 mg/kg i.v., 1 hour, probit; (26-32)* on the line below. Here is the method:
2. Effect on the antagonism of reserpine-induced ptosis
The antidepressive activity of the compounds was evaluated in the test for the antagonism of reserpine-induced ptosis in mice.
This study was carried out on batches of 10 female mice weighing 20±1 g. The products were administered intraperitoneally at the same time as the reserpine (2 mg/kg, administered intravenously). The mice were observed individually 1 hour after the administrations. […] The median effective dose for antagonism (ED50) was evaluated by the probit method.

In test [4] the test system is spontaneous motility of mice. Put plainly: spontaneous motility of mice (activity test). The class given is in vivo. The note with it: oral, 45 minutes after administration, recorded 10 minutes. As to the method:
1. Activity on the motility of mice
The tranquillising-sedative activity of the derivatives of the present invention was evaluated by measuring the spontaneous motility of mice by means of the activity test (J. R. BOISSIER and P. SIMON, Arch. Int. Pharmacodyn. 1965, 158, 212-221).
The equipment consisted of activity cages of the Apelab type (length=26 cm; width=21.5 cm; height=10 cm), through which two rays of light pass, acting on a photoelectric cell.
The animals were placed individually in the cages 45 minutes after oral administration of the product: each crossing of a light beam was counted by an individual counter. The scores corresponding to the movements of the animals were recorded for 10 minutes. The batches consisted of 12 mice per dose.

Take `Cc1cc(-c2cccc3ccccc23)n[n+](CCCC(=O)O)c1N` [Example 24, 3-Amino-2-(3-carboxypropyl)-4-methyl-6-(naphth-1-yl)-2-pyridazinium chloride]: the EC50 in test [1] came to 2900 nM.

For the molecule `COc1ccc(-c2cc(C)c(N)[n+](CCCC(=O)O)n2)cc1` [Example 27], the EC50 in test [1] was 5000 nM.

Consider `Cc1cc(-c2ccccc2Cl)n[n+](CCCC(=O)O)c1N` [Example 29], for which the EC50 in test [1] stood at 3200 nM.

Take `Nc1ccc(-c2ccc(Cl)cc2Cl)n[n+]1CCCC(=O)O` [Example 30]: the EC50 in test [1] came out at 7000 nM.

Regarding `Nc1ccc(-c2ccc(Cl)cc2)n[n+]1CCCC(=O)O` [Example 31], in test [1], the EC50 came out at 1250 nM.

Consider `Cc1cc(-c2cccc(Cl)c2)n[n+](CCCC(=O)O)c1N` [Example 33], for which the EC50 in test [1] is 700 nM.

Turning to `Cc1ccc(-c2cc(C)c(N)[n+](CCCC(=O)O)n2)cc1` [Example 34], the EC50 in test [1] was 710 nM.

Turning to `Cc1cc(-c2ccccc2)n[n+](CCCC(=O)O)c1N` [Example 37], the EC50 in test [1] amounted to 2800 nM.

For `Nc1ccc(-c2ccccc2)n[n+]1CCCC(=O)O` [Example 38], in test [1], the EC50 is 1340 nM.

Regarding `Cc1cc(-c2ccccc2)n[n+](CCC(=O)O)c1N` [Example 39], the EC50 in test [1] was determined as 10000 nM.

On to `Cc1cc(-c2ccccc2)n[n+](CCCCC(=O)O)c1N` [Example 40], for which the “Rotational behaviour of mice, effect” value in test [2] (0,5 mg/kg) is -50%; in test [2] (2 mg/kg), -62%. The molecule also came in with an ED50 in test [3] of 29 mg/kg. For the same molecule, the “Motility of the mice, effect” value in test [4] (50 mg/kg, *p 0.05) is reported as -33%; in test [4] (100 mg/kg, **p 0.01), -48%.

On to `Nc1ccc(C2CCCCC2)n[n+]1CCCC(=O)O` [Example 41], for which the EC50 in test [1] was 10500 nM.

Turning to `Nc1ccc(-c2ccsc2)n[n+]1CCCC(=O)O` [Example 42], in test [1], the EC50 was found to be 2400 nM.

In the case of `Nc1ccc(-c2cccs2)n[n+]1CCCC(=O)O` [Example 43], in test [1], the EC50 amounted to 830 nM.

As for `Cc1cc(-c2ccc(O)cc2)n[n+](CCCC(=O)O)c1N` [Example 47, 3-Amino-2-(3-carboxypropyl)-4-methyl-6-(4-hydroxyphenyl)-2-pyridazinium bromide], in test [1], the EC50 was found to be 3000 nM.
